From patent publication US12495798B2, “Nicotinamide compound and herbicidal composition comprising compound” (KOREA RESEARCH INSTITUTE OF CHEMICAL TECHNOLOGY, priority 2019, dated 2025)

What was measured:
Assay type in all cases: in vivo
wheat [1] = assay: Phytotoxicity test for upland field crops (foliar treatment test); parameters: key: 0 (no harm); 9 (complete withered)
Method in brief: (§1)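 Spray-booth foliar treatment of greenhouse-grown crops at 19˜300 g a.i./ha. Visual crop injury was scored 0–9 against untreated plants at 7 and 14 days.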

soybean [2] = assay: as above; parameters: key: 0 (no harm); 9 (complete withered)
Method in brief: as §1

cotton [3] = assay: as above; parameters: key: 0 (no harm); 9 (complete withered)
Method in brief: as §1

rice [4] = assay: as above; parameters: key: 0 (no harm); 9 (complete withered)
Method in brief: as §1

corn [5] = assay: as above; parameters: key: 0 (no harm); 9 (complete withered)
Method in brief: as §1

wheat [6] = assay: Phytotoxicity test for field crops (soil treatment test); parameters: key: 0 (no harm); 9 (complete withered)
Procedure: (§2) Experimental Example 4: Phytotoxicity Test for Field Crops (Soil Treatment Test)
(§3) Soil treatment was performed for sown crops and weeds in a square plastic pot having a surface area of 50 cm^2 filled with sterilized horticultural soil (pH 6.1, organic material 1.0%, clay 21%, silt 17%, sand 52%). As a fertilizer per pot, 0.5 g of horticultural mixed fertilizer (N:P:K=17:21:17) was treated by mixing with soil. Five kinds of crops such as rice, wheat, corn, soybean, and cotton were sown in each pot. One day after sowing, test compound solutions were made by diluting with the diluent (33% acetone, 0.1% Tween-20) so that the final treatment amount of the test compounds was 19˜300 g a.i./ha. The prepared test compound solutions were treated using a spray booth (SB6-016) at a treatment amount of 100 ml per 1 m^2 of treatment area. The treated crops were managed in greenhouse conditions (average temperature 30±5° C., light/dark=14/10 hours). External symptoms and phytotoxicity were visually investigated 10 and 20 days after treatment. In the evaluation of the phytotoxicity for the crop, the grade of 0 (no harm) to 9 (complete withered) was used. The results of Table 10 were obtained by evaluating phytotoxicity value to the untreated control.

soybean [7] = assay: as above; parameters: key: 0 (no harm); 9 (complete withered)
Procedure: as §2, §3

cotton [8] = assay: as above; parameters: key: 0 (no harm); 9 (complete withered)
Procedure: as §2, §3

rice [9] = assay: as above; parameters: key: 0 (no harm); 9 (complete withered)
Procedure: as §2, §3

corn [10] = assay: as above; parameters: key: 0 (no harm); 9 (complete withered)
Procedure: as §2, §3

cocklebur = assay: Herbicidal activity test against upland field weeds (foliar treatment test); conditions: 50 g ai/ha, scale 0-100
Method in brief: (§4)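 Visual 0–100 control ratings relative to untreated plants, taken 14 (or 21) days after spraying foliage at 50 or 75 g a.i./ha. Spray solution: 50% acetone with 0.1% Tween-20; plants kept in greenhouse at 30±5 °C, 14 h light/10 h dark.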

barnyard grass = assay: as above; conditions: 50 g ai/ha, scale 0-100
Method in brief: as §4

indian jointvetch = assay: as above; conditions: 50 g ai/ha, scale 0-100
Method in brief: as §4

black nightshade = assay: as above; parameters: key to Foliar treatment herbicidal activity, black nightshade: 0 (no control); 100 (complete control); conditions: 50 g ai/ha, scale 0-100
Method in brief: as §4

bindweed = assay: as above; conditions: 50 g ai/ha, scale 0-100
Method in brief: as §4

velvetleaf = assay: as above; conditions: 50 g ai/ha
Method in brief: as §4

quack grass = assay: as above; conditions: 50 g ai/ha, scale 0-100
Method in brief: as §4

fall panicum = assay: as above; conditions: 50 g ai/ha, scale 0-100
Method in brief: as §4

crabgrass = assay: as above; conditions: 50 g ai/ha, scale 0-100
Method in brief: as §4

sorghum = assay: as above; parameters: key to Foliar treatment herbicidal activity, Sorghum: 0 (no control); 100 (complete control); conditions: 50 g ai/ha, scale 0-100
Method in brief: as §4

[11] = 50 g ai/ha, Wheat (7 days after treatment)
[12] = 50 g ai/ha, Wheat (14 days after treatment)
[13] = 100 g ai/ha, Wheat (7 days after treatment)
[14] = 100 g ai/ha, Wheat (14 days after treatment)
[15] = 50 g ai/ha, Corn (7 days after treatment)
[16] = 50 g ai/ha, Corn (14 days after treatment)
[17] = 100 g ai/ha, Corn (7 days after treatment)
[18] = 100 g ai/ha, Corn (14 days after treatment)

Cn1nnnc1NC(=O)c1ccc(C(F)(F)F)nc1Sc1nnnn1C [Compound No. 1-40, N-(1-methyl-1H-tetrazol-5-yl)-2-((1-methyl-1H-tetrazol-5-yl)thio)-6-(trifluoromethyl)nicotinamide]
Foliar treatment phytotoxicity, Wheat (wheat [1]; [11]): 0 | Foliar treatment phytotoxicity, Wheat (wheat [1]; [12]): 0 | Foliar treatment phytotoxicity, Wheat (wheat [1]; [13]): 1 | Foliar treatment phytotoxicity, Wheat (wheat [1]; [14]): 0 | Foliar treatment phytotoxicity, Soybean (soybean [2]; 50 g ai/ha, Soybean (7 days after treatment)): 6 | Foliar treatment phytotoxicity, Soybean (soybean [2]; 50 g ai/ha, Soybean (14 days after treatment)): 5 | Foliar treatment phytotoxicity, Soybean (soybean [2]; 100 g ai/ha, Soybean (7 days after treatment)): 6 | Foliar treatment phytotoxicity, Soybean (soybean [2]; 100 g ai/ha, Soybean (14 days after treatment)): 5 | Foliar treatment phytotoxicity, Cotton (cotton [3]; 50 g ai/ha, Cotton (7 days after treatment)): 2 | Foliar treatment phytotoxicity, Cotton (cotton [3]; 50 g ai/ha, Cotton (14 days after treatment)): 3 | Foliar treatment phytotoxicity, Cotton (cotton [3]; 100 g ai/ha, Cotton (7 days after treatment)): 3 | Foliar treatment phytotoxicity, Cotton (cotton [3]; 100 g ai/ha, Cotton (14 days after treatment)): 4 | Foliar treatment phytotoxicity, Rice (rice [4]; 50 g ai/ha, Rice (7 days after treatment)): 0 | Foliar treatment phytotoxicity, Rice (rice [4]; 50 g ai/ha, Rice (14 days after treatment)): 0 | Foliar treatment phytotoxicity, Rice (rice [4]; 100 g ai/ha, Rice (7 days after treatment)): 0 | Foliar treatment phytotoxicity, Rice (rice [4]; 100 g ai/ha, Rice (14 days after treatment)): 1 | Foliar treatment phytotoxicity, Corn (corn [5]; [15]): 0 | Foliar treatment phytotoxicity, Corn (corn [5]; [16]): 0 | Foliar treatment phytotoxicity, Corn (corn [5]; [17]): 0 | Foliar treatment phytotoxicity, Corn (corn [5]; [18]): 0 | Soil treatment phytotoxicity, Wheat (wheat [6]; 50 g ai/ha, Wheat (10 days after treatment)): 0 | Soil treatment phytotoxicity, Wheat (wheat [6]; 50 g ai/ha, Wheat (20 days after treatment)): 0 | Soil treatment phytotoxicity, Wheat (wheat [6]; 100 g ai/ha, Wheat (10 days after treatment)): 0 | Soil treatment phytotoxicity, Wheat (wheat [6]; 100 g ai/ha, Wheat (20 days after treatment)): 0 | Soil treatment phytotoxicity, Soybean (soybean [7]; 50 g ai/ha, Soybean (10 days after treatment)): 0 | Soil treatment phytotoxicity, Soybean (soybean [7]; 50 g ai/ha, Soybean (20 days after treatment)): 0 | Soil treatment phytotoxicity, Soybean (soybean [7]; 100 g ai/ha, Soybean (10 days after treatment)): 0 | Soil treatment phytotoxicity, Soybean (soybean [7]; 100 g ai/ha, Soybean (20 days after treatment)): 0 | Soil treatment phytotoxicity, Cotton (cotton [8]; 50 g ai/ha, Cotton (10 days after treatment)): 1 | Soil treatment phytotoxicity, Cotton (cotton [8]; 50 g ai/ha, Cotton (20 days after treatment)): 0 | Soil treatment phytotoxicity, Cotton (cotton [8]; 100 g ai/ha, Cotton (10 days after treatment)): 3 | Soil treatment phytotoxicity, Cotton (cotton [8]; 100 g ai/ha, Cotton (20 days after treatment)): 0 | Soil treatment phytotoxicity, Rice (rice [9]; 50 g ai/ha, Rice (10 days after treatment)): 0 | Soil treatment phytotoxicity, Rice (rice [9]; 50 g ai/ha, Rice (20 days after treatment)): 0 | Soil treatment phytotoxicity, Rice (rice [9]; 100 g ai/ha, Rice (10 days after treatment)): 0 | Soil treatment phytotoxicity, Rice (rice [9]; 100 g ai/ha, Rice (20 days after treatment)): 0 | Soil treatment phytotoxicity, Corn (corn [10]; 50 g ai/ha, Corn (10 days after treatment)): 0 | Soil treatment phytotoxicity, Corn (corn [10]; 50 g ai/ha, Corn (20 days after treatment)): 0 | Soil treatment phytotoxicity, Corn (corn [10]; 100 g ai/ha, Corn (10 days after treatment)): 0 | Soil treatment phytotoxicity, Corn (corn [10]; 100 g ai/ha, Corn (20 days after treatment)): 0

CCCn1nnnc1NC(=O)c1ccc(C(F)(F)F)nc1COCc1nc(C(F)(F)F)n(C)n1 [Compound No. 2-120, 2-(((1-methyl-5-(trifluoromethyl)-1H-1,2,4-triazol-3-yl)methoxy)methyl)-N-(1-propyl-1H-tetrazol-5-yl)-6-(trifluoromethyl)nicotinamide]
pest or weed control at 50 g/ha (cocklebur; Xanthium strumarium): 90% | pest or weed control at 50 g/ha (barnyard grass; Echinochloa crus-galli): 80% | pest or weed control at 50 g/ha (indian jointvetch): 60% | Foliar treatment herbicidal activity, black nightshade (black nightshade): 100 | pest or weed control at 50 g/ha (bindweed): 50% | pest or weed control at 50 g/ha (velvetleaf; Abutilon theophrasti, scale 0-100, read-out: Foliar treatment herbicidal activity, velvet leaf): 80% | pest or weed control at 50 g/ha (quack grass): 10% | Foliar treatment phytotoxicity, Wheat (wheat [1]; [11]): 0 | Foliar treatment phytotoxicity, Wheat (wheat [1]; [12]): 0 | Foliar treatment phytotoxicity, Wheat (wheat [1]; [13]): 0 | Foliar treatment phytotoxicity, Wheat (wheat [1]; [14]): 0 | Foliar treatment phytotoxicity, Corn (corn [5]; [15]): 0 | Foliar treatment phytotoxicity, Corn (corn [5]; [16]): 0 | Foliar treatment phytotoxicity, Corn (corn [5]; [17]): 0 | Foliar treatment phytotoxicity, Corn (corn [5]; [18]): 0 | pest or weed control at 50 g/ha (fall panicum; Panicum dichotomiflorum): 90% | pest or weed control at 50 g/ha (crabgrass; Digitaria sanguinalis): 95% | plant injury at 50 g/ha (sorghum; Sorghum): 10%

C#CCn1nnnc1NC(=O)c1ccc(C(F)(F)F)nc1COCc1nc(C(F)(F)F)n(C)n1 [Compound No. 2-122]
Foliar treatment herbicidal activity, Cocklebur (cocklebur): 80 | Foliar treatment herbicidal activity, barnyard grass (barnyard grass): 50 | Foliar treatment herbicidal activity, Indian jointvetch (indian jointvetch): 70 | Foliar treatment herbicidal activity, black nightshade (black nightshade): 95 | Foliar treatment herbicidal activity, Bindweed (bindweed): 70 | Foliar treatment herbicidal activity, velvet leaf (velvetleaf; scale 0-100): 50 | Foliar treatment herbicidal activity, quack grass (quack grass): 30 | Foliar treatment phytotoxicity, Wheat (wheat [1]; [11]): 0 | Foliar treatment phytotoxicity, Wheat (wheat [1]; [12]): 0 | Foliar treatment phytotoxicity, Wheat (wheat [1]; [13]): 0 | Foliar treatment phytotoxicity, Wheat (wheat [1]; [14]): 0 | Foliar treatment phytotoxicity, Corn (corn [5]; [15]): 0 | Foliar treatment phytotoxicity, Corn (corn [5]; [16]): 0 | Foliar treatment phytotoxicity, Corn (corn [5]; [17]): 0 | Foliar treatment phytotoxicity, Corn (corn [5]; [18]): 0 | Foliar treatment herbicidal activity, Fall panicum (fall panicum): 40 | Foliar treatment herbicidal activity, Crabgrass (crabgrass): 20 | Foliar treatment herbicidal activity, Sorghum (sorghum): 0
